Data taken from PubChem BioAssay (NCI).
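A five-concentration, 48-hour dose response in 96-well plates underlies each endpoint, interpolated linearly between surrounding concentrations. GI50: concentration for 50% inhibition of growth. TGI denotes the concentration required for complete inhibition of growth.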

Tests used:
Assay in all cases: growth of human tumour cells (NCI), 48 h
[1] = tested on: HCT-15 colon
[2] = tested on: SK-MEL-28 melanoma
[3] = tested on: UACC-62 melanoma
[4] = tested on: HL-60(TB) leukemia
[5] = tested on: MOLT-4 leukemia
[6] = tested on: CAKI-1 renal
[7] = tested on: UACC-257 melanoma
[8] = tested on: EKVX NSCLC
[9] = tested on: T-47D breast
[10] = tested on: A498 renal
[11] = tested on: SK-MEL-5 melanoma
[12] = tested on: RPMI-8226 leukemia
[13] = tested on: MALME-3M melanoma
[14] = tested on: SR leukemia
[15] = tested on: HT29 colon
[16] = tested on: KM12 colon
[17] = tested on: DU-145 prostate
[18] = tested on: OVCAR-3 ovarian
[19] = tested on: SW-620 colon
[20] = tested on: SNB-75 CNS
[21] = tested on: SF-268 CNS
[22] = tested on: OVCAR-4 ovarian
[23] = tested on: NCI-H460 lung
[24] = tested on: U251 CNS
[25] = tested on: SNB-19 CNS
[26] = tested on: MDA-MB-231 breast
[27] = tested on: SF-295 CNS
[28] = tested on: M14 melanoma
[29] = tested on: SF-539 CNS
[30] = tested on: 786-0 renal
[31] = tested on: OVCAR-8 ovarian
[32] = tested on: CCRF-CEM leukemia
[33] = tested on: MDA-MB-435
[34] = tested on: NCI-H522 lung
[35] = tested on: NCI/ADR-RES ovarian
[36] = tested on: PC-3 prostate
[37] = tested on: BT-549 breast
[38] = tested on: OVCAR-5 ovarian
[39] = tested on: TK-10 renal
[40] = tested on: SN12C renal
[41] = tested on: HCT-116 colon
[42] = tested on: NCI-H226 lung
[43] = tested on: HCC-2998 colon
[44] = tested on: SK-MEL-2 melanoma
[45] = tested on: HS 578T breast
[46] = tested on: NCI-H23 lung
[47] = tested on: ACHN renal
[48] = tested on: A549 NSCLC
[49] = tested on: COLO 205 colon
[50] = tested on: MCF7 breast
[51] = tested on: UO-31 renal
[52] = tested on: SK-OV-3 ovarian
[53] = tested on: HOP-92 NSCLC
[54] = tested on: HOP-62 NSCLC

SMILES: COc1cc(/C=C/C(=O)c2c(C)nc3ccccc3c2C)ccc1OCCCCOc1cc2c(cc1OC)C(=O)N1CCC[C@H]1C=N2
- GI50 [1]: 1710 nM
- TGI [1]: 5180 nM
- GI50 [2]: 214 nM
- TGI [2]: 647 nM
- GI50 [3]: 600 nM
- TGI [3]: 2020 nM
- GI50 [4]: 196 nM
- TGI [4]: 514 nM
- GI50 [5]: 325 nM
- TGI [5]: 1120 nM
- GI50 [6]: 331 nM
- TGI [6]: 1440 nM
- GI50 [7]: 261 nM
- TGI [7]: 822 nM
- GI50 [8]: 1740 nM
- TGI [8]: 3560 nM
- GI50 [9]: 333 nM
- TGI [9]: 1360 nM
- GI50 [10]: 286 nM
- TGI [10]: 779 nM
- GI50 [11]: 517 nM
- TGI [11]: 1470 nM
- GI50 [12]: 209 nM
- TGI [12]: 585 nM
- GI50 [13]: 554 nM
- TGI [13]: 2370 nM
- GI50 [14]: 325 nM
- TGI [14]: > 100000 nM
- GI50 [15]: 403 nM
- TGI [15]: 2020 nM
- GI50 [16]: 308 nM
- TGI [16]: 839 nM
- GI50 [17]: 368 nM
- TGI [17]: 1130 nM
- GI50 [18]: 217 nM
- TGI [18]: 631 nM
- GI50 [19]: 203 nM
- TGI [19]: 538 nM
- GI50 [20]: 334 nM
- TGI [20]: 929 nM
- GI50 [21]: 277 nM
- TGI [21]: 1040 nM
- GI50 [22]: 470 nM
- TGI [22]: 4620 nM
- GI50 [23]: 832 nM
- TGI [23]: 2580 nM
- GI50 [24]: 305 nM
- TGI [24]: 955 nM
- GI50 [25]: 872 nM
- TGI [25]: 2570 nM
- GI50 [26]: 606 nM
- TGI [26]: 3510 nM
- GI50 [27]: 416 nM
- TGI [27]: 1560 nM
- GI50 [28]: 1160 nM
- TGI [28]: > 100000 nM
- GI50 [29]: 550 nM
- TGI [29]: 1540 nM
- GI50 [30]: 602 nM
- TGI [30]: 1860 nM
- GI50 [31]: 245 nM
- TGI [31]: 703 nM
- GI50 [32]: 225 nM
- TGI [32]: 1480 nM
- GI50 [33]: 274 nM
- TGI [33]: 873 nM
- GI50 [34]: 339 nM
- TGI [34]: 1260 nM
- GI50 [35]: 3060 nM
- TGI [35]: 40400 nM
- GI50 [36]: 296 nM
- TGI [36]: 1350 nM
- GI50 [37]: 188 nM
- TGI [37]: 482 nM
- GI50 [38]: 528 nM
- TGI [38]: 3350 nM
- GI50 [39]: 403 nM
- TGI [39]: 3200 nM
- GI50 [40]: 509 nM
- TGI [40]: 9870 nM
- GI50 [41]: 432 nM
- TGI [41]: 6490 nM
- GI50 [42]: 1300 nM
- TGI [42]: 3260 nM
- GI50 [43]: 519 nM
- TGI [43]: 1160 nM
- GI50 [44]: 414 nM
- TGI [44]: 978 nM
- GI50 [45]: 229 nM
- TGI [45]: 624 nM
- GI50 [46]: 396 nM
- TGI [46]: 1420 nM
- GI50 [47]: 1460 nM
- TGI [47]: 3220 nM
- GI50 [48]: 460 nM
- TGI [48]: 4170 nM
- GI50 [49]: 740 nM
- TGI [49]: 2140 nM
- GI50 [50]: 238 nM
- TGI [50]: 975 nM
- GI50 [51]: 252 nM
- TGI [51]: 1080 nM
- GI50 [52]: 1180 nM
- TGI [52]: 3080 nM
- GI50 [53]: 190 nM
- TGI [53]: 632 nM
- GI50 [54]: 1710 nM
- TGI [54]: 6930 nM
